The record followed here is patent US7371731B2, “Methods for using glucose pentasulfate for treating amyloid associated with type II diabetes” (priority 1998, dated 2008).

The target in experiment [1] is T1, human islet amyloid polypeptide (Homo sapiens, UniProt P10997).
T1 construct: consists of a 37 amino acid protein known as islet amyloid polypeptide or amylin; purchased Bachem Inc, Torrance, Calif., USA
T1 sequence (P10997 34-70 limits assumed): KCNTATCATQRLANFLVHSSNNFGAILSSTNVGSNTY
The experiment in a line: Thioflavin T fluorometry assay of islet amyloid polypeptide (amylin) fibrils. Type of experiment: biochemical. The conditions noted are these: 1.25 mM; all time points (1 hr to 1 week). The method, then:
(§1) To assess the effects of each compound on Aβ (1-40) fibril formation, 50 μl aliquots were taken from each tube for analysis at 1 hr, 1 day, 3 days, and 1 week. For each determination described above, following each incubation period, 50 μl of Aβ+/−test compounds were added to 1.2 ml of 100 μM Thioflavin T (Sigma Chemical Co., St. Louis, Mo.) in 50 mM NaPO4 (pH 6.0). […] Fluorescence emission at 482 nm was measured on a Turner instrument-model 450 fluorometer at an excitation wavelength of 450 nm. For each determination, the fluorometer was calibrated by zeroing in the presence of the Thioflavin T reagent alone, and by seting the 50 ng/ml riboflavin (Sigma Chemical Co., St. Louis, Mo.) in the Thioflavin T reagent to 1800 fluorescence units. All fluorescence determinations were based on these references and any fluorescence given off by any of the compounds in the presence of the Thioflavin T reagent was always subtracted from all pertinent readings.
For this study, the method of Thioflavin T fluorometry as described above was used. Briefly, 25 μM of human islet amyloid polypeptide (Bachem Inc, Torrance, Calif., USA, Lot # WL934) was incubated in microcentrifuge tubes at 37° C. for 1 week (in triplicate), either alone, or in the presence of 1.25 mM glucose pentasulfate (PTI-48579; molecular weight=771) or mannose pentasulfate (PTI-07499; molecular weight=771). To assess the effects of glucose pentasulfate and mannose pentasulfate on islet amyloid polypeptide fibrillogenesis, 50 μl aliquots were taken from each tube for analysis at 1 hr, 1 day, 2 days, 3 days, 4 days and 1 week. For each determination described above, following each incubation period, 50 μl aliquots of islet amyloid polypeptide+/−glucose pentasulfate or mannose pentasulfate were added to 1.2 ml of 100 μM Thioflavin T (Sigma Chemical Co., St. Louis, Mo.) in 50 mM NaPO4 (pH 6.0) for fluorometry readings as described in section 4.1.

Another experiment concerns the target T2, Aβ (1-40) (Homo sapiens, UniProt P05067).
T2 construct: 25 μM of Aβ (1-40)(Bachem Inc., Torrance, Calif., USA; Lot #WM365); purchased Bachem Inc., Torrance, Calif., USA
Nature of the experiment: Thioflavin T fluorometry assay of Aβ (1-40) amyloid fibril formation. Type of experiment: biochemical. Conditions: Example 1; 25 μM Aβ (1-40), 1.25 mM compound (1:50 M ratio), 1-week incubation.
Excerpt: A previously described method of measuring amyloid fibril formation utilizing Thioflavin T fluorometry (H Naiki et al, Lab. Invest. 65:104-110, 1991; H Levine III, Protein Sci. 2:404-410, 1993; H Levine III, Amyloid: Int. J. Exp. Clin. Invest. 2:1-6, 1995; H Naiki and K. Nakakuki, Lab. Invest. 74:374-383, 1996) was employed initially to identify potential therapeutic compounds capable of inhibiting Aβ amyloid fibril formation. Using this sensitive assay, any decreases or increases in fluorescence were previously shown to correlate with a decrease or increase in the amount of amyloid fibrils (H Naiki et al, Lab. Invest. 65:104-110, 1991; H Levine III, Protein Sci. 2:404-410, 1993; H Levine III, Amyloid: Int. J. Exp. Clin. Invest. 2:1-6, 1995; H Naiki and K. Nakakuki, Lab. Invest. 74:374-383, 1996), allowing one to determine the identification and extent of potential inhibitors and/or enhancers of amyloid fibril formation.
In an initial set of studies, the effects of various compounds on Aβ (1-40) fibrillogenesis was assessed. For these initial studies, 25 μM of Aβ (1-40)(Bachem Inc., Torrance, Calif., USA; Lot #WM365) was incubated in microcentrifuge tubes at 37° C. for 1 week (in triplicate), either alone, or in the presence of 1.25 mM (ie. 1:50 M ratio of Aβ:test compound) of various commercially available compounds (described below) in 150 mM Tris HCl, 10 mM NaCl, pH 7.0 (TBS). The compounds tested included glucose pentasulfate (PTI-48579, potassium salt; molecular weight=771), mannose pentasulfate (PTI-07499, potassium salt; molecular weight=771), methyl alpha-D-glucopyranoside 2,3,4,6-tetrasulfate (PTI-20049, potassium salt; molecular weight=667), methyl alpha-D-mannopyranoside 2,3,4,6-tetrasulfate (PTI-20814, potassium salt; molecular weight=667), sucrose heptasulfate (PTI-70936, potassium salt; molecular weight=1169), sucrose hexasulfate (PTI-70946, potassium salt; molecular weight=1052), and sucrose octasulfate (PTI-70011, potassium salt; molecular weight=1288).
as §1
For all fibrillogenesis studies utilizing Thioflavin T fluorometry, comparisons of Aβ in the presence or absence of test compounds were based on paired Student's t tests with data shown as mean+/−standard deviation. Significance was reported at the 95% (p<0.05), 99% (p<0.01) and 99.9% (p<0.001) confidence levels.
In this study, the dose-dependent effects of glucose pentasulfate (PTI-48579) on Aβ (1-40) fibrillogenesis was determined using the Thioflavin T fluorometry assay. 25 μM of Aβ (1-40) (Bachem Inc., Torrance, Calif., USA; Lot #WM365) was incubated in microcentrifuge tubes at 37° C. for 1 week (in triplicate), either alone, or in the presence of 1.25 mM (ie. 1:50 M ratio of Aβ:PTI-48579), 0.41 mM, 0.138 mM and 0.046 mM of glucose pentasulfate in 150 mM Tris HCl, 10 mM NaCl, pH 7.0 (TBS). 50 μl aliquots were taken from each tube for analysis at 1 hr, 1 day, 3 days, and 1 week using Thioflavin T fluorometry as described in section 4.1. […]

“Also recorded” adds a separate entry of the source.

T2 sequence (P05067 672-711 limits assumed): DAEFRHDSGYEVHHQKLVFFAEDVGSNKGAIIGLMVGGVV

For `O=C[C@@H](OS(=O)(=O)O)[C@@H](OS(=O)(=O)O)[C@H](OS(=O)(=O)O)[C@@H](COS(=O)(=O)O)OS(=O)(=O)O` [mannose pentasulfate, reference compound], the “effect on islet amyloid polypeptide fibrillogenesis (in words)” value in experiment [1] was “significant increase”. In addition, the “effect on Aβ (1-40) amyloid fibril formation (in words)” value (shortened to “effect on Aβ”) on Aβ (1-40) is recorded as “ineffective inhibitors; also recorded: did not inhibit”.

`CO[C@H]1O[C@H](COS(=O)(=O)O)[C@@H](OS(=O)(=O)O)[C@H](OS(=O)(=O)O)[C@@H]1OS(=O)(=O)O` [methyl alpha-D-mannopyranoside 2,3,4,6-tetrasulfate, reference compound]: the “effect on Aβ” value at Aβ (1-40) is reported as “ineffective inhibitors”.

`CO[C@H]1O[C@H](COS(=O)(=O)O)[C@@H](OS(=O)(=O)O)[C@H](OS(=O)(=O)O)[C@H]1OS(=O)(=O)O` [methyl alpha-D-glucopyranoside 2,3,4,6-tetrasulfate, reference compound]: the “effect on Aβ” value at Aβ (1-40) was “ineffective inhibitors”.
